In patent US20170121315A1, “HETEROBICYCLICALLY SUBSTITUTED 4-OXOBUTANE ACID DERIVATIVES AND USE THEREOF” (priority 2014, published 2017):

What follows are compounds tested against T1, human macrophage elastase (HME/hMMP-12) (Homo sapiens, UniProt P39900) (assay: In vitro HME inhibition test (standard or high-sensitivity)). Details: in some cases mean values, rounded to two significant figures.
T1 construct: purchased R&D Systems 917-MP
Type: biochemical
Experimental: The potency of the compounds according to the invention with respect to HME (MMP-12) is determined in an in vitro inhibition test. The HME-mediated amidolytic cleavage of a suitable peptide substrate leads to an increase in fluorescent light therein. The signal intensity of the fluorescent light is directly proportional to the enzyme activity. The active concentration of a test compound at which half the enzyme is inhibited (50% signal intensity of the fluorescent light) is reported as the IC50 value.
In a 384 hole microtiter plate, in a total test volume of 41 μl, the test buffer (0.1 M HEPES pH 7.4, 0.15 M NaCl, 0.03 M CaCl2, 0.004 mM ZnCl2, 0.02 M EDTA, 0.005% Brij®), the enzyme (0.5 nM HME; R&D Systems, 917-MP, autocatalytic activation according to the manufacturer's instructions) and the intramolecularly quenched substrate [5 μM Mca-Pro-Leu-Gly-Leu-Glu-Glu-Ala-Dap(Dnp)-NH2; Bachem, M-2670] are incubated in the absence and presence of the test substance (as a solution in DMSO) at 37° C. for two hours. The fluorescence intensity of the test mixtures is measured (excitation […], emission 393 nm). The IC50 values are ascertained by plotting the fluorescent light intensity against the active ingredient concentration.
In this case, an enzyme concentration ten times lower is used (final concentration, e.g. 0.05 nM) in order to achieve an increased test sensitivity. The incubation period chosen for the test is correspondingly longer (e.g. 16 hours).

T1 sequence (P39900 106-470): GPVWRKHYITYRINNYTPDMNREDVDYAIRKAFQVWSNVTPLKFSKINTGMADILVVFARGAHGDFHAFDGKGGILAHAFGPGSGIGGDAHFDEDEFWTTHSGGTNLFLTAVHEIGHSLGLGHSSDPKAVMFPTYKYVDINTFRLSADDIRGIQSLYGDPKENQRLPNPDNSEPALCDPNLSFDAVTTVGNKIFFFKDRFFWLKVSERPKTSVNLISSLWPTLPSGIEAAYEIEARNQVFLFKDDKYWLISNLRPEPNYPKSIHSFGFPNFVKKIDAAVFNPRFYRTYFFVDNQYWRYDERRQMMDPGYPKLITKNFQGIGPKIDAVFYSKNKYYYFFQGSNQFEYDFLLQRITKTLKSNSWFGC

Row | Compound | IC50
1 | O=C(CC(CCn1nnc2ccccc2c1=O)C(=O)O)c1coc2cc(OCc3ccc(Cl)c(Cl)c3)ccc12 (single isomer, unassigned) [Example 93, 4-{6-[(3,4-Dichlorobenzyl)oxy]-1-benzofur-3-yl}-4-oxo-2-[2-(4-oxo-1,2,3-benzotriazin-3(4H)-yl)ethyl]butanoic acid] | 97 nM
2 | O=C(CC(CCn1nnc2ccccc2c1=O)C(=O)O)c1cc2cc(OCCCc3cccs3)ccc2o1 (racemic) [Example 46, (+/−)-4-Oxo-2-[2-(4-oxo-1,2,3-benzotriazin-3(4H)-yl)ethyl]-4-{5-[3-(2-thienyl)propoxy]-1-benzofur-2-yl}butanoic acid] | 1.9 nM
3 | O=C(CC(CCn1nnc2ccccc2c1=O)C(=O)O)c1cc2cc(OCc3ccc(F)cc3F)ccc2o1 (racemic) [Example 52, (+/−)-4-{5-[(2,4-Difluorobenzyl)oxy]-1-benzofur-2-yl}-4-oxo-2-[2-(4-oxo-1,2,3-benzotriazin-3(4H)-yl)ethyl]butanoic acid] | 2.1 nM
4 | O=C(CC(CCn1nnc2ccccc2c1=O)C(=O)O)c1cc2ccc(OCCC3CCOCC3)cc2o1 (racemic) [Example 54, (+/−)-4-Oxo-2-[2-(4-oxo-1,2,3-benzotriazin-3(4H)-yl)ethyl]-4-{6-[2-(tetrahydro-2H-pyran-4-yl)ethoxy]-1-benzofur-2-yl}butanoic acid] | 5.6 nM
5 | CCCCCCCOc1ccc2c(C(=O)CC(CCn3nnc4ccccc4c3=O)C(=O)O)coc2c1 (single isomer, unassigned; (+)) [Example 103, (+)-4-[6-(Heptyloxy)-1-benzofur-3-yl]-4-oxo-2-[2-(4-oxo-1,2,3-benzotriazin-3(4H)-yl)ethyl]butanoic acid acid] | 0.23 nM
6 | O=C(CC(CCn1nnc2ccccc2c1=O)C(=O)O)c1coc2cc(OCCc3ccccc3)ccc12 (racemic) [Example 110, (+/−)-4-Oxo-2-[2-(4-oxo-1,2,3-benzotriazin-3(4H)-yl)ethyl]-4-[6-(2-phenylethoxy)-1-benzofur-3-yl]butanoic acid] | 0.54 nM
7 | O=C(CC(CCn1nnc2ccccc2c1=O)C(=O)O)c1noc2cc(OCc3ccc(F)cc3)ccc12 (single isomer, unassigned; enantiomer 2) [Example 138, 4-{6-[(4-Fluorobenzyl)oxy]-1,2-benzoxazol-3-yl}-4-oxo-2-[2-(4-oxo-1,2,3-benzotriazin-3(4H)-yl)ethyl]butanoic acid (enantiomer 2)] | 0.33 nM
8 | NC(=O)c1cccc(COc2ccc3oc(C(=O)CC(CCn4nnc5ccccc5c4=O)C(=O)O)cc3c2)c1 (single isomer, unassigned; (-)) [Example 33, (−)-4-{5-[(3-Carbamoylbenzyl)oxy]-1-benzofur-2-yl}-4-oxo-2-[2-(4-oxo-1,2,3-benzotriazin-3(4H)-yl)ethyl]butanoic acid] | 350 nM
9 | CCCCCOc1ccc2cc(C(=O)CC(CCn3nnc4ccccc4c3=O)C(=O)O)oc2c1 (racemic) [Example 55, (+/−)-4-Oxo-2-[2-(4-oxo-1,2,3-benzotriazin-3(4H)-yl)ethyl]-4-[6-(pentyloxy)-1-benzofur-2-yl]butanoic acid] | 3.7 nM
10 | COc1ccc(CCOc2ccc3oc(C(=O)CC(CCn4nnc5ccccc5c4=O)C(=O)O)cc3c2)cc1 (racemic) [Example 3, (+/−)-4-{5-[2-(4-Methoxyphenyl)ethoxy]-1-benzofur-2-yl}-4-oxo-2-[2-(4-oxo-1,2,3-benzotriazin-3(4H)-yl)ethyl]butanoic acid] | 4.1 nM
11 | O=C(CC(CCn1nnc2ccccc2c1=O)C(=O)O)c1coc2cc(OCc3cccc(Cl)c3)ccc12 (racemic) [Example 77, (+/−)-4-{6-[(3-Chlorobenzyl)oxy]-1-benzofur-3-yl}-4-oxo-2-[2-(4-oxo-1,2,3-benzotriazin-3(4H)-yl)ethyl]butanoic acid] | 2.9 nM
12 | O=C(CC(CCn1nnc2ccccc2c1=O)C(=O)O)c1cc2cc(OCCCC(F)(F)F)ccc2o1 (single isomer, unassigned; enantiomer 1) [Example 12, (−)-4-Oxo-2-[2-(4-oxo-1,2,3-benzotriazin-3(4H)-yl)ethyl]-4-[5-(4,4,4-trifluorobutoxy)-1-benzofur-2-yl]butanoic acid (enantiomer 1)] | 900 nM
13 | O=C(CC(CCn1nnc2ccccc2c1=O)C(=O)O)c1cc2cc(OCc3ccc(Cl)c(Cl)c3)ccc2o1 (single isomer, unassigned; (-)) [Example 26, (−)-4-{5-[(3,4-Dichlorobenzyl)oxy]-1-benzofur-2-yl}-4-oxo-2-[2-(4-oxo-1,2,3-benzotriazin-3(4H)-yl)ethyl]butanoic acid] | 160 nM
14 | CCCCCOc1ccc2cc(C(=O)CC(CCn3nnc4ccccc4c3=O)C(=O)O)oc2c1 (single isomer, unassigned; (-)) [Example 56, (−)-4-Oxo-2-[2-(4-oxo-1,2,3-benzotriazin-3(4H)-yl)ethyl]-4-[6-(pentyloxy)-1-benzofur-2-yl]butanoic acid] | 1400 nM
15 | CCCCOc1ccc2cc(C(=O)CC(CCn3nnc4ccccc4c3=O)C(=O)O)sc2c1 (racemic) [Example 126, (+/−)-4-(6-Butoxy-1-benzothiophen-2-yl)-4-oxo-2-[2-(4-oxo-1,2,3-benzotriazin-3(4H)-yl)ethyl]butanoic acid] | 2.9 nM
16 | O=C(CC(CCn1nnc2ccccc2c1=O)C(=O)O)c1coc2cc(OCC3CCCC3)ccc12 (single isomer, unassigned; (-)) [Example 79, (−)-4-[6-(Cyclopentylmethoxy)-1-benzofur-3-yl]-4-oxo-2-[2-(4-oxo-1,2,3-benzotriazin-3(4H)-yl)ethyl]butanoic acid] | 1900 nM
17 | O=C(CC(CCn1nnc2ccccc2c1=O)C(=O)O)c1cc2ccc(OCC3CC3)cc2s1 (single isomer, unassigned; (-)) [Example 113, (−)-4-[6-(Cyclopropylmethoxy)-1-benzothiophen-2-yl]-4-oxo-2-[2-(4-oxo-1,2,3-benzotriazin-3(4H)-yl)ethyl]butanoic acid] | 4300 nM
18 | CC(C)CCCOc1ccc2cc(C(=O)CC(CCn3nnc4ccccc4c3=O)C(=O)O)oc2c1 (racemic) [Example 70, (+/−)-4-{6-[(4-Methylpentyl)oxy]-1-benzofur-2-yl}-4-oxo-2-[2-(4-oxo-1,2,3-benzotriazin-3(4H)-yl)ethyl]butanoic acid] | 4.1 nM
19 | O=C(CC(CCn1nnc2ccccc2c1=O)C(=O)O)c1cc2cc(OCC3CCCC3)ccc2o1 (single isomer, unassigned; enantiomer 1) [Example 17, (−)-4-[5-(Cyclopentylmethoxy)-1-benzofur-2-yl]-4-oxo-2-[2-(4-oxo-1,2,3-benzotriazin-3(4H)-yl)ethyl]butanoic acid (enantiomer 1)] | 94 nM
20 | NC(=O)c1cccc(COc2ccc3c(C(=O)CC(CCn4nnc5ccccc5c4=O)C(=O)O)noc3c2)c1 (racemic) [Example 139, (+/−)-4-{6-[(3-Carbamoylbenzyl)oxy]-1,2-benzoxazol-3-yl}-4-oxo-2-[2-(4-oxo-1,2,3-benzotriazin-3(4H)-yl)ethyl]butanoic acid] | 0.58 nM
21 | O=C(CC(CCn1nnc2ccccc2c1=O)C(=O)O)c1cc2cc(OCC3CCCC3)ccc2o1 (racemic) [Example 16, (+/−)-4-[5-(Cyclopentylmethoxy)-1-benzofur-2-yl]-4-oxo-2-[2-(4-oxo-1,2,3-benzotriazin-3(4H)-yl)ethyl]butanoic acid] | 24 nM
22 | O=C(CC(CCn1nnc2ccccc2c1=O)C(=O)O)c1cc2cc(OCCCC(F)(F)F)ccc2o1 (racemic) [Example 11, (+/−)-4-Oxo-2-[2-(4-oxo-1,2,3-benzotriazin-3(4H)-yl)ethyl]-4-[5-(4,4,4-trifluorobutoxy)-1-benzofur-2-yl]butanoic acid] | 4.3 nM
23 | CCCOc1ccc2cc(C(=O)CC(CCn3nnc4ccc(C(F)(F)F)cc4c3=O)C(=O)O)sc2c1 (racemic) [Example 132, (+/−)-4-Oxo-2-{2-[4-oxo-6-(trifluoromethyl)-1,2,3-benzotriazin-3(4H)-yl]ethyl}-4-(6-propoxy-1-benzothiophen-2-yl)butanoic acid] | 0.51 nM
24 | O=C(CC(CCn1nnc2ccccc2c1=O)C(=O)O)c1cc2cc(OCC3CCCC3)ccc2o1 (single isomer, unassigned; enantiomer 2) [Example 18, (+)-4-[5-(Cyclopentylmethoxy)-1-benzofur-2-yl]-4-oxo-2-[2-(4-oxo-1,2,3-benzotriazin-3(4H)-yl)ethyl]butanoic acid (enantiomer 2)] | 6 nM
25 | CCCOc1ccc2c(C(=O)CC(CCn3nnc4ccccc4c3=O)C(=O)O)coc2c1 (single isomer, unassigned; (+)) [Example 88, (+)-4-Oxo-2-[2-(4-oxo-1,2,3-benzotriazin-3(4H)-yl)ethyl]-4-(6-propoxy-1-benzofur-3-yl)butanoic acid] | 1.1 nM
26 | CCCCCCOc1ccc2cc(C(=O)CC(CCn3nnc4ccccc4c3=O)C(=O)O)oc2c1 (single isomer, unassigned; (+)) [Example 66, (+)-4-[6-(Hexyloxy)-1-benzofur-2-yl]-4-oxo-2-[2-(4-oxo-1,2,3-benzotriazin-3(4H)-yl)ethyl]butanoic acid] | 2.4 nM
